Test results as given in PMC3898741, “Substituted imidazopyridazines are potent and selective inhibitors of Plasmodium falciparum calcium-dependent protein kinase 1 (PfCDPK1)” (Bioorganic & Medicinal Chemistry Letters, 2013).
Where two headings read alike, the source gives them in different places.

Experiments:
[1] = target: PfCDPK1 (Plasmodium falciparum, UniProt P62344); experiment: PfCDPK1 enzyme inhibition (Kinase-Glo ATP depletion); type: biochemical; settings: for IC50: isolated recombinant enzyme
Procedure: [10] A high throughput screen of 35,422 compounds comprising a diverse set of small molecules from a variety of commercial suppliers and 8100 kinase-focused compounds (BioFocus) was performed using Kinase-Glo® (Promega) to measure ATP depletion resulting from the kinase reaction. Full length recombinant PfCDPK1 was incubated with MyoA-Tail domain Interacting Protein (MTIP) substrate and the amount of ATP remaining after 1 h was measured by luminescence using a Pherastar plate reader (BMG Labtech).

[2] = test system: P. falciparum parasite; experiment: In vitro P. falciparum parasite growth (FACS, hydroethidine); type: cell-based, Plasmodium falciparum; settings: for inhibition at 1 µM / EC50: Plasmodium falciparum; for inhibition at 1 µM: at 1 μM inhibitor concentration
Procedure: [15] P. falciparum EC50 values were measured using an in vitro model of malaria parasite growth. Compounds were diluted into 2% DMSO and added to parasites 24 h post-invasion in a 96-well plate and incubated under static conditions. Cells were recovered 48 h later and processed for FACS analysis using hydroethidine to stain parasite DNA. Data was acquired using CellQuest Pro software on a FACSCalibur (Becton Dickinson). Growth inhibition was calculated using the following formula: % growth inhibition = (1 − [parasitaemia of culture/parasitaemia of control culture]) ×100.

[3] = target: 73-member human kinase panel; experiment: Kinase selectivity against 73-member human kinase panel; type: biochemical; settings: 1 μM inhibitor concentration; for Kinases hit in human kinase panel: 73-member panel
Procedure: [17] Kinase selectivity profiling was carried out at the National Centre for Protein Kinase Profiling in the MRC Protein Phosphorylation Unit at the University of Dundee.

[4] = test system: P. berghei; experiment: 4-Day Peters test in P. berghei mouse model; type: in vivo; settings: oral once daily 50 mg/kg, 4 days, relative to vehicle
Procedure: In advance of in vivo testing, it was shown that the inhibitors retained potency against the isolated P. berghei CDPK1 enzyme.[16] Compounds were dosed with an oral, once daily 50 mg/kg regime over 4 days in the standard Peters test, and their in vitro ADME and in vivo efficacy data is shown in Table 6.

[5] = Human liver microsome stability (HLM); type: in vitro ADME; settings: % remaining at 30 min, human microsomes
[6] = Mouse liver microsome stability (MLM); type: in vitro ADME; settings: % remaining at 30 min, mouse microsomes
[7] = Mouse pharmacokinetics; type: in vivo
[8] = Measured log D; type: physicochemical
From the text: Table 6 In vitro ADME and in vivo efficacy data for selected compounds | column: 17; 24; 27; 28

[9] = PAMPA permeability; type: in vitro ADME
[10] = in vitro parasite growth, 48 h, read-out: P. falciparum EC50

Sequence of PfCDPK1 (P62344 whole entry, the tested form may be a part): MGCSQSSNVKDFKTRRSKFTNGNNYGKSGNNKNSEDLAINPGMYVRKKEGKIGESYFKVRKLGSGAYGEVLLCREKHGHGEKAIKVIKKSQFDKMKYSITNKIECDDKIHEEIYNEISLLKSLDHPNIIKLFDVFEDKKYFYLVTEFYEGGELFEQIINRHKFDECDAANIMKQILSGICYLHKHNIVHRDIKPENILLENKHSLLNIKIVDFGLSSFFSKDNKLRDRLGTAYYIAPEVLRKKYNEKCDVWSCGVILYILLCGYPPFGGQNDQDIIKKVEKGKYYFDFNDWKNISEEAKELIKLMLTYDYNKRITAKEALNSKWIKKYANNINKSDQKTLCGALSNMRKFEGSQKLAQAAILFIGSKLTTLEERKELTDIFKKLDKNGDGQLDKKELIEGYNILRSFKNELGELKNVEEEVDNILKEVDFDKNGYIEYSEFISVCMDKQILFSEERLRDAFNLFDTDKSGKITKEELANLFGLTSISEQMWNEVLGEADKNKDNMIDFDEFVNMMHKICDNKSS

Compound	IC50 [1] [nM]	EC50 [2, 10] [nM]	further results
NC(=O)c1ccc(-c2cnc3ccc(NCCc4cccnc4)nn23)cc1 [Compound 1]	59	–	inhibition at 1 µM [2]: 99%
NC(=O)c1ccc(-c2cnc3ccc(NCCc4ccccn4)nn23)cc1 [Compound 2]	61	–	inhibition at 1 µM [2]: 99%
CC(=O)Nc1cccc(-c2cnc3ccc(NCCc4ccccn4)nn23)c1 [Compound 3]	66	–	inhibition at 1 µM [2]: 35%
N#Cc1ccc(-c2cnc3ccc(NCCc4cccnc4)nn23)cc1 [Compound 4]	71	–	inhibition at 1 µM [2]: 98%
Fc1cccc(-c2cnc3ccc(NCCc4cccnc4)nn23)c1 [Compound 5]	80	–	inhibition at 1 µM [2]: 6%
CC(=O)Nc1cccc(-c2cnc3ccc(N[C@H]4CC[C@H](N)CC4)nn23)c1 [Compound 6]	11	320	–
CN1CCC(Nc2ccc3ncc(-c4cccc(NC(=O)C5CC5)c4)n3n2)CC1 [Compound 7]	22	560	–
COC(=O)Nc1cccc(-c2cnc3ccc(NC4CCN(C)CC4)nn23)c1 [Compound 8]	18	750	–
CC(C)CCNC(=O)c1ccc(-c2cnc3ccc(N[C@H]4CC[C@H](N)CC4)nn23)cc1 [Compound 9]	16	460	EC50 against the P. falciparum parasite [2]: sub-micromolar
CC(C)CCNC(=O)c1ccc(-c2cnc3ccc(NC4CCN(C)CC4)nn23)cc1 [Compound 10]	23	780	EC50 against the P. falciparum parasite [2]: sub-micromolar
CC(C)CCNc1ccc(-c2cnc3ccc(NC4CCN(C)CC4)nn23)cn1 [Compound 17]	–	400	Kinases hit in human kinase panel [3]: MKK1, RSK1, PKD1, CHK2, Aurora B, NUAK1, GCK, MLK1, Src, Lck, YES1, and VEGFR; Reduction in parasitaemia in vivo [4]: 46%; HLM (% rem) [5]: 85 % rem; EC50 ([2]; P. falciparum, read-out: Cell potency): < 500 nM; MLM (% rem) [6]: 63 % rem; Clearance (in words) [7]: moderate to high clearance; Oral bioavailability in mouse (in words) [7]: good oral bioavailability; i.v. t1/2 [7]: 2 h; Oral %F ([7]; oral): 84%; logD [8]: 3.4
CCCCNc1ccc(-c2cnc3ccc(NC4CCN(C)CC4)nn23)cn1 [Compound 18]	14	430	–
CN1CCC(Nc2ccc3ncc(-c4ccc(NCC5CC5)nc4)n3n2)CC1 [Compound 19]	36	450	–
COCCNc1ccc(-c2cnc3ccc(NC4CCN(C)CC4)nn23)cn1 [Compound 20]	25	670	–
CC(C)CCNc1cc(-c2cnc3ccc(NC4CCN(C)CC4)nn23)ccn1 [Compound 21]	88	–	Loss in potency against the enzyme in comparison to 17 ([1]; PfCDPK1): sevenfold loss in potency
CC(C)CCNc1ccc(-c2cnc3ccc(NC4CCN(C)C4)nn23)cn1 (stereo not shown) [Compound 24]	23	170	Selectivity profile against panel of human kinases [3]: good selectivity profiles; Kinases hit in human kinase panel [3]: RSK1 and HER4; Reduction in parasitaemia in vivo [4]: 30%; HLM (% rem) [5]: 63 % rem; MLM (% rem) [6]: 74 % rem; Papp [9]: 11.4 ×10⁻⁶ cm/s; logD [8]: 3.5
CC(C)CCNc1ccc(-c2cnc3ccc(NC4CN(C)C4)nn23)cn1 [Compound 25]	89	930	–
CC(C)CCNc1ccc(-c2cnc3ccc(N4CCN(C)CC4)nn23)cn1 [Compound 26]	175	2400	–
CC(C)CCNc1ccc(-c2cnc3ccc(N4CCC(N(C)C)CC4)nn23)cn1 [Compound 27]	44	570	Reduction in parasitaemia in vivo [4]: 7%; HLM (% rem) [5]: 80 % rem; MLM (% rem) [6]: 84 % rem; Papp [9]: 13.7 ×10⁻⁶ cm/s; logD [8]: 3.2
CC(C)CCNc1ccc(-c2cnc3ccc(N4CCC(N)CC4)nn23)cn1 [Compound 28]	13	140	Selectivity profile against panel of human kinases [3]: good selectivity profiles; Kinases hit in human kinase panel [3]: RSK1, CAMK1, PHK, NUAK1, and HER4; Reduction in parasitaemia in vivo [4]: 11%; HLM (% rem) [5]: 90 % rem; MLM (% rem) [6]: 90 % rem; Papp [9]: 5.5 ×10⁻⁶ cm/s; logD [8]: 2.5
CC(C)CCNc1ccc(-c2cnc3ccc(NC4CCNCC4)nn23)cn1 [Compound 29]	15	240	–
CC(C)CCOc1ccc(-c2cnc3ccc(N[C@H]4CC[C@H](N)CC4)nn23)cn1 [Compound 30]	170	540	–
CC(C)CCNc1ncc(-c2cnc3ccc(NC4CCN(C)CC4)nn23)cn1 [Compound 31]	14	470	–
CC(C)CCNc1ncc(-c2cnc3ccc(N[C@H]4CC[C@H](N)CC4)nn23)cn1 [Compound 32]	16	170	–
CC(C)CCNc1nccc(-c2cnc3ccc(NC4CCN(C)CC4)nn23)n1 [Compound 33]	424	–	–
